Source: the supplement of paper PMC10307832

What was measured:
Experiment in all cases: relative viability (nuclei count vs DMSO), 5 days (fraction); higher = more cells survive
[1] = test system: NCI-H322M
Outline: (§1)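 Cells from lung cancer lines were seeded into 1536-well plates and, one day later, dosed by pin tool. Treatments were either a single drug or a fixed dose of an anchor drug with five library-drug doses (not always all listed) in √10 steps. After 5 days, nuclei were stained in a one-step fixation (final 0.05% Triton X-100, 1% formaldehyde, 1 ug/ml Hoechst) and counted on 4× images, and relative viability is the treated-to-vehicle nuclei ratio, as the median of duplicate plates.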

[2] = test system: NCI-H441
Outline: as §1

[3] = test system: NCI-H460
Outline: as §1

[4] = test system: NCI-H520
Outline: as §1

[5] = test system: NCI-H596
Outline: as §1

[6] = test system: NCI-H650
Outline: as §1

[7] = test system: NCI-H661
Outline: as §1

[8] = test system: NCI-H727
Outline: as §1

[9] = test system: PC-14
Outline: as §1

[10] = test system: RERF-LC-KJ
Outline: as §1

[11] = test system: SK-MES-1
Outline: as §1

[12] = test system: SW 900
Outline: as §1

CC1(C)CCC(c2ccc(Cl)cc2)=C(CN2CCN(c3ccc(C(=O)NS(=O)(=O)c4ccc(N[C@H](CCN5CCOCC5)CSc5ccccc5)c(S(=O)(=O)C(F)(F)F)c4)cc3)CC2)C1 [Navitoclax] + Cc1nc(Nc2ncc(C(=O)Nc3c(C)cccc3Cl)s2)cc(N2CCN(CCO)CC2)n1 [Dasatinib] (partner 0.075 µM) was tested, and the relative viability ([1]; first compound 0.01581 µM) was 0.24, the relative viability ([1]; first compound 0.05 µM) was 0.252 and the relative viability ([1]; first compound 0.1581 µM) was 0.271. It also gave a relative viability ([1]; first compound 0.5 µM) of 0.324, a relative viability ([2]; first compound 0.005 µM) of 0.739 and a relative viability ([2]; first compound 0.01581 µM) of 0.639. The relative viability ([2]; first compound 0.05 µM) was 0.549, the relative viability ([2]; first compound 0.1581 µM) was 0.632 and the relative viability ([2]; first compound 0.5 µM) was 0.637. The relative viability ([3]; first compound 0.005 µM) was 0.522, the relative viability ([3]; first compound 0.01581 µM) was 0.609 and the relative viability ([3]; first compound 0.05 µM) was 0.651. For the same compound, the relative viability ([3]; first compound 0.1581 µM) was 0.53, the relative viability ([3]; first compound 0.5 µM) was 0.483 and the relative viability ([4]; first compound 0.01581 µM) was 0.205. The relative viability ([4]; first compound 0.05 µM) was 0.272, the relative viability ([4]; first compound 0.1581 µM) was 0.201 and the relative viability ([4]; first compound 0.5 µM) was 0.258. It also gave a relative viability ([5]; first compound 0.005 µM) of 0.734, a relative viability ([5]; first compound 0.01581 µM) of 0.68 and a relative viability ([5]; first compound 0.1581 µM) of 0.603. For the same compound, the relative viability ([5]; first compound 0.5 µM) was 0.438, the relative viability ([6]; first compound 0.005 µM) was 0.456 and the relative viability ([6]; first compound 0.01581 µM) was 0.473. The relative viability ([6]; first compound 0.05 µM) was 0.463, the relative viability ([6]; first compound 0.1581 µM) was 0.477 and the relative viability ([6]; first compound 0.5 µM) was 0.459. For the same compound, the relative viability ([7]; first compound 0.005 µM) was 0.621, the relative viability ([7]; first compound 0.01581 µM) was 1.11 and the relative viability ([7]; first compound 0.05 µM) was 0.901. For the same compound, the relative viability ([7]; first compound 0.1581 µM) was 0.933, the relative viability ([7]; first compound 0.5 µM) was 0.926 and the relative viability ([8]; first compound 0.01581 µM) was 0.364. It also gave a relative viability ([8]; first compound 0.1581 µM) of 0.365, a relative viability ([8]; first compound 0.5 µM) of 0.347 and a relative viability ([9]; first compound 0.005 µM) of 0.255. The relative viability ([9]; first compound 0.01581 µM) was 0.317, the relative viability ([9]; first compound 0.05 µM) was 0.228 and the relative viability ([9]; first compound 0.1581 µM) was 0.284. It also gave a relative viability ([9]; first compound 0.5 µM) of 0.215, a relative viability ([10]; first compound 0.005 µM) of 0.787 and a relative viability ([10]; first compound 0.01581 µM) of 0.757. The relative viability ([10]; first compound 0.05 µM) was 0.817, the relative viability ([10]; first compound 0.1581 µM) was 0.823 and the relative viability ([10]; first compound 0.5 µM) was 0.918. The relative viability ([11]; first compound 0.005 µM) was 0.324, the relative viability ([11]; first compound 0.01581 µM) was 0.466 and the relative viability ([11]; first compound 0.05 µM) was 0.395. The relative viability ([11]; first compound 0.1581 µM) was 0.393, the relative viability ([11]; first compound 0.5 µM) was 0.43 and the relative viability ([12]; first compound 0.005 µM) was 0.504. It also gave a relative viability ([12]; first compound 0.01581 µM) of 0.537, a relative viability ([12]; first compound 0.05 µM) of 0.475 and a relative viability ([12]; first compound 0.1581 µM) of 0.8. The relative viability ([12]; first compound 0.5 µM) was 0.42.
